Legend:
[1] = test system: nasal polyposis in patient with cystic fibrosis; assay: Case report Example 1: cystic fibrosis patient with bilateral nasal polyposis; type: in vivo, human
Procedure: A patient has a history of cystic fibrosis and chronic sinusitis. The patient complained of hyposmia and nasal congestion. […] Culture of the sinuses grew out Pseudomonas. Patient was prescribed ciprofloxacin per the sinus culture. […] Prior to prescribing oral zileuton, a liver function test was performed that was normal. Patient was given zileuton 1200 mg BID. Two months later patient came back with improved nasal congestion and smell. […] Since the patient's symptoms improved, the zileuton was eventually discontinued. After a few months the patient's sinus infection returned. Patient was placed on oral ciprofloxacin.

[2] = test system: coughing in patient with cystic fibrosis and chronic sinusitis; assay: Case report Example 2: cystic fibrosis patient with chronic sinusitis and coughing; type: in vivo, human
Procedure: Patient failed medical treatment, so they underwent endoscopic sinus surgery. Patient's sinus culture has grown MRSA and Pseudomonas. Patient initially did well after the surgery but was readmitted for pulmonary exacerbation. […] Patient was treated with ciprofloxacin for Pseudomonas. […] Nasal endoscopy was not performed in the child due to their young age. The patient was then treated with zileuton 600 mg BID after a normal liver function test. Patient's coughing improved with the zileuton treatment.

[3] = target: T1, 5-lipoxygenase (Homo sapiens, UniProt P09917); conditions: statement 'recently been found', no data given; cited from earlier work
T1 sequence (P09917 1-674): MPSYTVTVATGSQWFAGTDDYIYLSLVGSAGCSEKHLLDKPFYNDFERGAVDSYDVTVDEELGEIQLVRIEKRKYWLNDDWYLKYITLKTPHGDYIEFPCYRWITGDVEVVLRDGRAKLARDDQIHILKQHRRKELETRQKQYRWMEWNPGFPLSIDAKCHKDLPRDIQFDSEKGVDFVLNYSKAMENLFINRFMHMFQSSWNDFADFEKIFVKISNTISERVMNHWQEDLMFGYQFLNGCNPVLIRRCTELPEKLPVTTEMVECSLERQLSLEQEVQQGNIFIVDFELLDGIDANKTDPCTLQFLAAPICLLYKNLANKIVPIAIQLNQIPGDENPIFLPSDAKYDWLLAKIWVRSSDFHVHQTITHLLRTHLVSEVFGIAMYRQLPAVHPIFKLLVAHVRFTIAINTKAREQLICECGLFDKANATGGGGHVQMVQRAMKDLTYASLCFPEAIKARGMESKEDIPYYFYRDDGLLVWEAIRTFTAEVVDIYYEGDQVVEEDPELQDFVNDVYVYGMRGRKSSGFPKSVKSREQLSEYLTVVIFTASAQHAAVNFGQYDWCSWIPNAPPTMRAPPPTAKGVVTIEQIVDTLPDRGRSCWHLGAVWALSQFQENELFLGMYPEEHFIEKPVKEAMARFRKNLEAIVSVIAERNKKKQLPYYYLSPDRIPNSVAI

[4] = treatments given before zileuton (ciprofloxacin for Pseudomonas; inhaled dornase alfa)
[5] = zileuton 1200 mg BID oral, two months later, one patient

Molecule: O=C(O)c1cn(C2CC2)c2cc(N3CCNCC3)c(F)cc2c1=O [ciprofloxacin]
- nasal symptoms after return of sinus infection ([1]; oral ciprofloxacin, after zileuton was discontinued): initial improvement but eventually had return of their nasal symptoms
- coughing [2, 4]: initially improved but gradually returned

Molecule: CC(c1cc2ccccc2s1)N(O)C(N)=O (racemic) [zileuton, (±)-1-(1-Benzo[b]thien-2-ylethyl)-1-hydroxyurea]
- nasal congestion and smell [1, 5]: improved
- nasal endoscopy: polyps [1, 5]: decreased polyps
- nasal endoscopy: purulence ([1]; zileuton 1200 mg BID oral, two months later, prescribed ciprofloxacin not taken): no purulence
- adverse effect: coughing ([1]; zileuton 1200 mg BID, dose then decreased to 600 mg BID): increased coughing
- coughing ([2]; zileuton 600 mg BID, one patient): improved

Molecule: C[C@H](c1cc2ccccc2s1)N(O)C(N)=O [(R)-zileuton]
- efficacy in inhibiting 5-lipoxygenase activity, compared between enantiomers and racemate [3]: more efficacious than either of (S)-zileuton and racemic zileuton

B1: dornase alfa (protein, UniProt P24855 23-282, looked up)
Deoxyribonuclease-1: LKIAAFNIQTFGETKMSNATLVSYIVQILSRYDIALVQEVRDSHLTAVGKLLDNLNQDAPDTYHYVVSEPLGRNSYKERYLFVYRPDQVSAVDSYYYDDGCEPCGNDTFNREPAIVRFFSRFTEVREFAIVPLHAAPGDAVAEIDALYDVYLDVQEKWGLEDVMLMGDFNAGCSYVRPSQWSSIRLWTSPTFQWLIPDSADTTATPTHCAYDRIVVAGMLLRGAVVPDSALPFNFQAAYGLSDQLAQAISDHYPVEVMLK
notes: inhaled dornase alfa, part of aggressive medical treatment
- coughing [2, 4]: continued to have coughing
